{
  "source": "patent US20050239873A1",
  "about": "(priority 1999, published 2005)",
  "key": {"[1]": {"system": "TABX1A cells (under-expressing Bcl-xL)", "assay": "Cell viability by trypan blue dye exclusion", "conditions": "2 μg/ml, without fructose, six hours", "description": "Briefly, a DNA fragment encoding the full-length mouse BCl-xL cDNA was isolated from the plasmid PBS.BCL-xL (Tzung et al., Am. J. Path. 150:1985-1995, 1997, incorporated herein by reference in its entirety) by digestion with the restriction endonuclease EcoRI. This EcoRI fragment was cloned into the EcoRI site of the mammalian expression vector pSFFV (Fuhlbrigge et al., Proc. Nat. Acad. Sci. USA 85:5649-5653, 1988) in both sense and antisense orientations, to form expression plasmids pSFFV.Bcl-xL(sense) or pSFFV.Bcl-xL(antisense), respectively. The tumorigenic murine hepatocyte cell line TAMH was transfected by lipofection (Lipofectamine, Life Technologies, Rockville, Md., according to the manufacturer's recommendations) with the plasmids pSFFV.neo (the control), pSFFV.Bcl-xL(sense) or pSFFV.Bcl-xL(antisense). […] Transfectants were selected for the acquisition of neomycin resistance by growing cells in the presence of 750 μg/ml of G418. Bulk transfectants were cloned by limiting dilution and individual clones were screened by immunoblot analysis to determine the level of BCl-xL protein expression as described below.\nSelected transfectants were then tested for whole cell sensitivity to several apoptotic agents. Transfected cells were cultured to reach approximately 80% confluency prior to plating an equal number of cells from selected clones on 12-well tissue culture plates. […] Cell viability was determined by trypan blue dye exclusion. The percentage of viable cells was calculated by the number of viable cells (treated with a particular apoptogenic agent) divided by the number in the control group (untreated).\nTABX2S cells and TABX1A cells were also examined for the effects of various mitochondrial inhibitors. […] At various time points after drug treatment, cells were trypsinized, and cell viability was determined by trypan blue dye exclusion. The number of viable cells were counted and normalized to control group (i.e., % control=number of viable cells (treated group)/number of viable cells (control group)×100)."}, "[2]": {"target": "T1, recombinant human Bcl-2ΔC22 (Homo sapiens, UniProt P10415)", "T1 construct": "poly-His (N); made in house", "T1 sequence (P10415 1-217 limits assumed, stated change not applied)": "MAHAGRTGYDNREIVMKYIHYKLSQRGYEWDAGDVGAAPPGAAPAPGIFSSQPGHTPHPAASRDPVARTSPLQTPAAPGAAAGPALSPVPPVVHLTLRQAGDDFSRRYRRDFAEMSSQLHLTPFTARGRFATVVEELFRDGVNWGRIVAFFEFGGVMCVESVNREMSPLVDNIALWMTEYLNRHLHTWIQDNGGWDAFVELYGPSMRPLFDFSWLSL", "assay": "Antimycin A3 fluorescence binding and competition assay", "conditions": "2 μM each, Bcl-2 3 μM, 7.5 minutes, 22.5° C.", "protocol": "In this assay, 0 to 5 μM antimycin A3 (Sigma Chemical Co., St. Louis, Mo.) was added to a physiological buffer (50 mM Tris-HCl pH 8.0, 0.2 M NaCl, 2 mM EDTA, 0.5% v/v glycerol) containing recombinant Bcl-2 or BCl-xL protein under conditions that permitted antimycin A3 to bind to the BH3-binding domain of Bcl-2 or BCl-xL (22.5° C. on a Hitachi F-2500 fluorescence spectrofluorimeter equipped with a thermostatted cell holder). […] The excitation wavelength was 335 nm, and the maximum emission wavelength for antimycin A3 was 428 nm with a slit width of 10 nm. The samples were mixed in a quartz cuvette and checked for inner filter effect over the concentration range of antimycin A3 used for this study. Blanks containing antimycin A3 at the same concentration as the experimental samples were used as controls in all measurements and necessary background corrections were made.\nRecombinant human Bcl-2ΔC22 (a recombinant human Bcl-2 with a delection of 22 amino acid residue membrane anchor sequence from the carboxyl end) and mouse Bcl-xLΔC20 (a recombinant murine BCl-xL with a delection of the 20 amino acid residue membrane anchor sequence from the carboxyl end) fused with poly-His at the N-terminus were chromatographically purified to homogeneity. The concentrations of antimycin A3 and stock solutions of recombinant proteins were quantitated using an extinction coefficient of 7.24/mM/cm at 320 nm and by Bradford assay, respectively. The stoichiometric ratio of antimycin A3 and Bcl-2 producing the maximal change in antimycin A3 fluorescence was determined with incremental addition of antimycin A3 to a 1.98 μM solution of recombinant Bcl-2 in a volume of 2.1 milliliters. […] For peptide displacement experiments, a solution of 2 μM antimycin A3 and 3 μM Bcl-2 was allowed to reach binding equilibrium at 4° C. prior to fluorescence measurements. Native peptide corresponding to the BH3 domain of Bak (72-[…]87 (SEQ ID NO:1)) or a mutant peptide with a single amino acid change (Leu78Ala-BH3) was added to the solution and the fluorescence measurements were repeated. […]"}, "[3]": {"assay": "Pharmacokinetic evaluation in male CD2F1 mice", "type": "in vivo, mouse", "protocol": "To determine the pharmacokinetics of 2-OMe antimycin A1 in male CD2F1 mice, groups of three were dosed either intravenously (tail vein) or intraperitoneally with 2-OMe antimycin A1 (20 mg/kg) in a vehicle of Cremaphor (5%) and ethanol (5%) in 0.9% saline. For both dosing routes, the volume administered was 5 ml/kg body weight. At various times, samples were collected by cardiac puncture into tubes containing NaF/EDTA (dry powders).\nPharmacokinetic values were derived with WinNonlin® software (Mountain View, Calif.)."}},
  "note": "Where “and” joins values, the source holds several entries; their conditions need not be identical. Identical values can stand only once.",
  "data": [
    {"compound": "antimycin A", "values": [
      {"measurement": "survival", "setting": "[1]", "result": 87, "unit": "%"}
    ]},
    {"compound": "CCCC[C@H]1C(=O)OC(C)[C@H](NC(=O)c2cccc(NC=O)c2OC)C(=O)O[C@@H](C)C1OC(=O)CC(C)C", "note": "(stereo partly drawn) [2-OMeA3, Antimycin A3 methyl ether]", "values": [
      {"measurement": "competition with antimycin A3 for Bcl-2", "setting": "[2]", "result": "competition for the antimycin A3 binding site"}
    ]},
    {"compound": "CCCCCC[C@H]1C(=O)O[C@H](C)[C@H](NC(=O)c2cccc(NC=O)c2OC)C(=O)O[C@@H](C)[C@@H]1OC(=O)CC(C)C", "note": "[2-OMeA1, 2-methoxy antimycin A1]", "values": [
      {"measurement": "AUC", "setting": "[3]; Intraperitoneal dose 20 mg/kg", "result": 2410, "unit": "ng·h/mL"},
      {"measurement": "Cmax", "setting": "[3]; Intraperitoneal dose 20 mg/kg", "result": 483, "unit": "ng/mL"},
      {"measurement": "MRT", "setting": "[3]; Intraperitoneal dose 20 mg/kg", "result": 474, "unit": "min"},
      {"measurement": "T1/2", "setting": "[3]; Intraperitoneal dose 20 mg/kg", "result": 183, "unit": "min"},
      {"measurement": "AUC", "setting": "[3]; Intravenous dose 20 mg/kg", "result": 3720, "unit": "ng·h/mL"},
      {"measurement": "Cmax", "setting": "[3]; Intravenous dose 20 mg/kg", "result": 8000, "unit": "ng/mL"},
      {"measurement": "MRT", "setting": "[3]; Intravenous dose 20 mg/kg", "result": 27.6, "unit": "min"},
      {"measurement": "T1/2", "setting": "[3]; Intravenous dose 20 mg/kg, 20 mg/kg", "result": "19 min and 19.2 min"},
      {"measurement": "plasma concentration at 24 hr after dosing", "setting": "[3]; intraperitoneal 20 mg/kg", "result": 18, "unit": "ng/mL"},
      {"measurement": "time of maximum plasma level", "setting": "[3]; intraperitoneal 20 mg/kg", "result": 30, "unit": "min"},
      {"measurement": "plasma concentration at 30 min after dosing", "setting": "[3]; intravenous 20 mg/kg", "result": 1040, "unit": "ng/mL"},
      {"measurement": "plasma concentration at 30 min as share of that at 5 min", "setting": "[3]; intravenous 20 mg/kg", "result": "about 15%"},
      {"measurement": "plasma concentration at 24 hr after dosing", "setting": "[3]; intravenous 20 mg/kg", "result": 15, "unit": "ng/mL"}
    ]}
  ]
}
